The results in this text go back to patent US7524823B2, “Macrolides” (Basilea Pharmaceutica AG, priority 2005, dated 2009).

≈ marks a conversion by molar mass, not a printed value. Read-outs that look alike come from different tables or passages of the source.

Common to all, as to format: cell-based
In test [1] the test system is Escherichia coli ATCC 25922. Nature of the test: MIC by broth microdilution (CAMHB, NCCLS). The following applies: code C: Escherichia coli ATCC 25922. As for the experimental part: (§1) MIC values for non-anaerobes were obtained by broth microdilution using CAMHB (BBL) according to NCCLS guidelines (National Committee for Clinical Laboratory Standards. Methods for dilution antimicrobial susceptibility tests for bacteria that grow aerobically, 5th ed. Approved standard M7-A6. NCCLS, Wayne, Pa., 2003). Drugs were dissolved in DMSO prior to dispensing into 96-well microtitre plates; the concentration of DMSO in assay wells never exceeded 2% (v/v). CAMHB was supplemented with 5% (v/v) horse serum (Sigma, cat. no. H-1270) in lieu of laked horse blood for cultivation of Streptococcus pneumoniae, and with 5% (v/v) Fildes enrichment (BBL, cat. no. 220810) supernate in lieu of Haemophilus Test Medium and additives for cultivation of Haemophilus influenzae (Pankuch G A, Hoellman D B, Lin G, Bajaksouzian S, Jacobs M R, Appelbaum P C. Activity of HMR 3647 compared to those of five agents against Haemophilus influenzae and Moraxella catarrhalis by MIC determination and time-kill assay. Antimicrob. Agents Chemother. November 1998; 42(11): 3032-4). Activities expressed as the minimal inhibitory concentrations (MICs) (μg/ml) are given in the following Table 3, and the microorganisms used for testing are listed in Table 2 below.
For orientation: Dilution methods test growth across graded concentrations, often in twofold steps.

In test [2] the test system is Staphylococcus aureus 1086. Kind of test: MIC by broth microdilution (CAMHB, NCCLS). The following applies: code B: Staphylococcus aureus 1086. As for the experimental part:
as §1

In test [3] the test system is Staphylococcus aureus ATCC 29213. Nature of the test: MIC by broth microdilution (CAMHB, NCCLS). The following applies: code A: Staphylococcus aureus ATCC 29213. As for the experimental part:
as §1

The subject of test [4] is Streptococcus pneumoniae 1/1. Kind of test: MIC by broth microdilution (CAMHB + 5% horse serum, NCCLS). The following applies: code D: Streptococcus pneumoniae 1/1. As for the experimental part: as §1
In test [5] the test system is Streptococcus pneumoniae SL199T. The test is described as above. The following applies: code E: Streptococcus pneumoniae SL199T. As for the experimental part:
as §1

For test [6], the system named is Streptococcus pneumoniae Tupelo. The description is as above. The following applies: code F: Streptococcus pneumoniae Tupelo. As for the experimental part: as §1
Test [7] concerns Haemophilus influenzae 12214. Nature of the test: MIC by broth microdilution (CAMHB + 5% Fildes enrichment, NCCLS). The following applies: code G: Haemophilus influenzae 12214. As for the experimental part: as §1
Test [8] deals with Haemophilus influenzae QK50. The description is as above. The following applies: code H: Haemophilus influenzae QK50. As for the experimental part:
as §1

Test [9] concerns Propionibacterium acnes EG7NS. Kind of test: MIC by anaerobic broth microdilution (WCB, NCCLS). The following applies: code I: Propionibacterium acnes EG7NS, anaerobic, 35-37° C., 48 h. As for the experimental part:
(§2) MIC values towards strains of propionibacteria were obtained by broth microdilution using WCB (Anaerobe Broth MIC, Difco) according to NCCLS guidelines (National Committee for Clinical Laboratory Standards. Methods for anti-microbial susceptibility testing of anaerobic bacteria, 5th ed.; approved standard. NCCLS publication no. M11-A5. NCCLS, Wayne, Pa., 2001). Microtitre plates were loaded into 7-L GENbox anaerobic incubation jars (BioMérieux, cat. no. 96 128) fitted with anaerobic atmosphere generators (BioMérieux, cat. no. 96 124) and a Dry Anaerobic Indicator Strip (BBL, cat. no. 271051). Under these conditions, an O2 concentration <0.1% was achieved by 2.5 h, and a CO2 concentration >15% by 24 h. MIC values were read after incubation at 35-37° C. for 48 h (Table 3).

Test [10] relates to Propionibacterium acnes SW101T. Nature of the test: MIC by anaerobic broth microdilution (WCB, NCCLS). The following applies: code K: Propionibacterium acnes SW101T, 35-37° C., 48 h. As for the experimental part:
as §2

Setting [11] is: Cutibacterium acnes, read-out: MIC.

As for `CC[C@H]1OC(=O)[C@H](C)[C@@H](O[C@H]2C[C@@](C)(OC)[C@@H](O)[C@H](C)O2)[C@H](C)[C@@H](O[C@@H]2O[C@H](C)C[C@H](N(C)C)[C@H]2O)[C@](C)(OC)C[C@@H](C)C(=O)[C@H](C)[C@H]2[C@H](SCC(=O)c3csc4ccccc34)C(=O)O[C@@]21C` [Example 28], the MIC was more than 32 µg/mL in test [1]; 16 µg/mL (≈ 16.4 µM) in test [2]; 2 µg/mL (≈ 2.04 µM) in [3]; 0.25 µg/mL in [4]; 4 µg/mL in test [5]; 4 µg/mL in test [6]. Also, the MIC was 8 µg/mL in test [7], 16 µg/mL in [8], 0.125 µg/mL (≈ 0.128 µM) in [9] and 8 µg/mL (≈ 8.18 µM) in test [10].

As for `CC[C@H]1OC(=O)[C@H](C)C(=O)[C@H](C)[C@@H](O[C@@H]2O[C@H](C)C[C@H](N(C)C)[C@H]2O)[C@](C)(OC)C[C@@H](C)C(=O)[C@H](C)[C@H]2N(CCCCn3cnc(-c4cccnc4)c3)C(=O)O[C@]12C` [Telithromycin, reference compound], the MIC in [1] (ATCC25922, read-out: MIC) is more than 32 µg/mL; in test [2] (read-out: MIC), 0.25 µg/mL (≈ 0.308 µM); in test [3] (ATCC29213, read-out: MIC), 0.25 µg/mL (≈ 0.308 µM); in test [4] (read-out: MIC), not above 0.06 µg/mL; in test [5] (read-out: MIC), not above 0.06 µg/mL; in [6] (read-out: MIC) it was 0.5 µg/mL. The MIC was 2 µg/mL in test [7] (read-out: MIC), 1 µg/mL in test [8] (read-out: MIC), not above 0.06 µg/mL in test [9] (setting [11]) and 16 µg/mL (≈ 19.7 µM) in test [10] (setting [11]).

Consider `CC[C@H]1OC(=O)[C@H](C)[C@@H](O[C@H]2C[C@@](C)(OC)[C@@H](O)[C@H](C)O2)[C@H](C)[C@@H](O[C@@H]2O[C@H](C)C[C@H](N(C)C)[C@H]2O)[C@](C)(OC)C[C@@H](C)C(=O)[C@H](C)[C@H]2[C@H](SCC(=O)NCc3ccccn3)C(=O)O[C@@]21C` [Example 6], for which the MIC result in test [1] was “>=32 μg/ml”; in test [2] it was more than 32 µg/mL; in [3] it was 0.5 µg/mL (≈ 0.525 µM); in test [4], “<=0.06 μg/ml”; in test [5], 1 µg/mL; in test [6], 2 µg/mL. Further, the MIC in test [7] is 2 µg/mL; in test [8], 2 µg/mL; in test [9] it was “<=0.06 μg/ml”; in test [10] it was more than 32 µg/mL.

Take `CC[C@H]1OC(=O)[C@H](C)[C@@H](O[C@H]2C[C@@](C)(OC)[C@@H](O)[C@H](C)O2)[C@H](C)[C@@H](O[C@@H]2O[C@H](C)C[C@H](N(C)C)[C@H]2O)[C@](C)(OC)C[C@@H](C)C(=O)[C@H](C)[C@H]2[C@H](SCCCN3C(=O)c4ccccc4C3=O)C(=O)O[C@@]21C` [Example 15]: the MIC in test [1] is more than 32 µg/mL; in [2], “>=32 μg/ml”; in test [3], 1 µg/mL (≈ 1.01 µM); in [4] it was “<=0.06 μg/ml”; in test [5] it was 1 µg/mL; in test [6] it was 2 µg/mL. Besides, the MIC was 4 µg/mL in [7], 4 µg/mL in test [8], “<=0.06 μg/ml” in test [9] and 16 µg/mL (≈ 16.1 µM) in [10].

For `CC[C@H]1OC(=O)[C@H](C)[C@@H](O[C@H]2C[C@@](C)(OC)[C@@H](O)[C@H](C)O2)[C@H](C)[C@@H](O[C@@H]2O[C@H](C)C[C@H](N(C)C)[C@H]2O)[C@](C)(OC)C[C@@H](C)C(=O)[C@H](C)[C@H]2[C@H](S(=O)(=O)CCn3cnc4c(N)ncnc43)C(=O)O[C@@]21C` [Example 7], the MIC in test [1] was more than 32 µg/mL; in test [2], more than 32 µg/mL; in test [3], 32 µg/mL (≈ 32.1 µM); in [4] it was 2 µg/mL; in test [5], 4 µg/mL; in test [6] it was 16 µg/mL. The MIC in test [7] was more than 32 µg/mL; in [8] it was more than 32 µg/mL; in test [9], 2 µg/mL (≈ 2.01 µM); in test [10] it was 8 µg/mL (≈ 8.02 µM).

On to `CC[C@H]1OC(=O)[C@H](C)[C@@H](O[C@H]2C[C@@](C)(OC)[C@@H](O)[C@H](C)O2)[C@H](C)[C@@H](O[C@@H]2O[C@H](C)C[C@H](N(C)C)[C@H]2O)[C@](C)(OC)C[C@@H](C)C(=O)[C@H](C)[C@H]2[C@H](SCCn3cnc4cncnc43)C(=O)O[C@@]21C` [Example 20], for which the MIC in test [1] was more than 32 µg/mL; in test [2], more than 32 µg/mL; in test [3], 1 µg/mL (≈ 1.05 µM); in test [4] it was “<=0.06 μg/ml”; in test [5] it was 0.5 µg/mL; in test [6], 1 µg/mL. Also, the MIC in [7] was 1 µg/mL; in test [8], 1 µg/mL; in [9], “<=0.06 μg/ml”; in test [10] it was 8 µg/mL (≈ 8.42 µM).

On to `CC[C@H]1OC(=O)[C@H](C)[C@@H](O[C@H]2C[C@@](C)(OC)[C@@H](O)[C@H](C)O2)[C@H](C)[C@@H](O[C@@H]2O[C@H](C)C[C@H](N(C)C)[C@H]2O)[C@](C)(OC)C[C@@H](C)C(=O)[C@H](C)[C@H]2[C@H](SCCNc3ncnc4[nH]cnc34)C(=O)O[C@@]21C` [Example 9], for which the MIC in test [1] was more than 32 µg/mL; in test [2] it was more than 32 µg/mL; in test [3] it was 4 µg/mL (≈ 4.14 µM); in test [4], “<=0.06 μg/ml”; in test [5] it was 0.25 µg/mL; in test [6], 1 µg/mL. The MIC turned out to be 2 µg/mL in test [7], 2 µg/mL in test [8], 0.125 µg/mL (≈ 0.13 µM) in [9] and 4 µg/mL (≈ 4.14 µM) in test [10].

In the case of `CC[C@H]1OC(=O)[C@H](C)[C@@H](O[C@H]2C[C@@](C)(OC)[C@@H](O)[C@H](C)O2)[C@H](C)[C@@H](O[C@@H]2O[C@H](C)C[C@H](N(C)C)[C@H]2O)[C@](C)(OC)C[C@@H](C)C(=O)[C@H](C)[C@H]2[C@H](SCCOCn3cnc4cccnc43)C(=O)O[C@@]21C` [Example 2], the MIC in test [1] was more than 32 µg/mL; in test [2], 8 µg/mL (≈ 8.17 µM); in test [3], 2 µg/mL (≈ 2.04 µM); in [4], “<=0.06 μg/ml”; in test [5] it was 0.5 µg/mL; in test [6] it was 0.5 µg/mL. The MIC in test [7] is 4 µg/mL; in [8] it was 8 µg/mL; in test [9], “<=0.06 μg/ml”; in test [10], 16 µg/mL (≈ 16.3 µM).

As to `CC[C@H]1OC(=O)[C@H](C)[C@@H](O[C@H]2C[C@@](C)(OC)[C@@H](O)[C@H](C)O2)[C@H](C)[C@@H](O[C@@H]2O[C@H](C)C[C@H](N(C)C)[C@H]2O)[C@](C)(OC)C[C@@H](C)C(=O)[C@H](C)[C@H]2[C@H](SCC(=O)Nc3ccc(F)cc3F)C(=O)O[C@@]21C` [Example 23], the MIC in [1] is more than 32 µg/mL; in [2], 32 µg/mL (≈ 32.9 µM); in [3], 2 µg/mL (≈ 2.06 µM); in test [4] it was “<=0.06 μg/ml”; in [5] it was 2 µg/mL; in test [6] it was 2 µg/mL. In addition, the MIC in [7] was 4 µg/mL; in test [8], 4 µg/mL; in test [9], “<=0.06 μg/ml”; in [10], 32 µg/mL (≈ 32.9 µM).
